The test system of assay [1] is Tyrosine-protein kinase ABL1 (Homo sapiens), P00519 [F317L]. Put plainly: Inhibition of ABL1 F317L mutant (unknown origin) assessed as remaining activity at 1 uM by Kinome scan method relative to control.
In assay [2] the target is Ephrin type-A receptor 2 (Homo sapiens) (UniProt P29317). In words: Inhibition of EPHA2 (unknown origin) assessed as remaining activity at 1 uM by Kinome scan method relative to control.
For assay [3], the target named is T1, Ephrin type-B receptor 4 (Homo sapiens) (UniProt P54760).
T1 sequence (whole entry): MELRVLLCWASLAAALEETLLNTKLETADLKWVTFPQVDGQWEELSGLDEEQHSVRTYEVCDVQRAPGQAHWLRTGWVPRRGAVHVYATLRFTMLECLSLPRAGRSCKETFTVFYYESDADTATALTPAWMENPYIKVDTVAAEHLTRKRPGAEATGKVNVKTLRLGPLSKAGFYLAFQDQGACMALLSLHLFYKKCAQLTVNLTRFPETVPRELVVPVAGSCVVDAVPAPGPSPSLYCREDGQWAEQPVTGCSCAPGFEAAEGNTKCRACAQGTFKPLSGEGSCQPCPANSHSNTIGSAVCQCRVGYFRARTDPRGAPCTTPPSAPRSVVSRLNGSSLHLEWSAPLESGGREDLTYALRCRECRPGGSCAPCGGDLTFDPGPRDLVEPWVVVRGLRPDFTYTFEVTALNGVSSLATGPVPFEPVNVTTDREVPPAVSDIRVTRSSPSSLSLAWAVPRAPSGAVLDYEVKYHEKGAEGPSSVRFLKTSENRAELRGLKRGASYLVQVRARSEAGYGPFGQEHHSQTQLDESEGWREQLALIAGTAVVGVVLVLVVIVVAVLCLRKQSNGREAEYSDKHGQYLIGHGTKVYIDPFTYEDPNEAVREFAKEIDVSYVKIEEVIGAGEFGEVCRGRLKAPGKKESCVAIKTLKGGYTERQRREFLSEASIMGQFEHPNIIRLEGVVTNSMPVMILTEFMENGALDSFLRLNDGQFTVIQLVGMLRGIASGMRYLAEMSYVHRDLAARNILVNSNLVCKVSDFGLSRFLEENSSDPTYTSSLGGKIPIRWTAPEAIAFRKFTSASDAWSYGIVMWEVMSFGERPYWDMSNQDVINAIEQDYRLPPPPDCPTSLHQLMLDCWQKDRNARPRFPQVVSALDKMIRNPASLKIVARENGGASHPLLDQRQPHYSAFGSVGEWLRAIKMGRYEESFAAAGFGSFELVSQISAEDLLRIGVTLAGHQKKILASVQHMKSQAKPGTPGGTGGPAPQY
Put plainly: Inhibition of EPHB4 (unknown origin) assessed as remaining activity at 1 uM by Kinome scan method relative to control.

Assay [4] has as its target T2, Homeodomain-interacting protein kinase 4 (Homo sapiens) (UniProt Q8NE63).
T2 sequence (whole entry): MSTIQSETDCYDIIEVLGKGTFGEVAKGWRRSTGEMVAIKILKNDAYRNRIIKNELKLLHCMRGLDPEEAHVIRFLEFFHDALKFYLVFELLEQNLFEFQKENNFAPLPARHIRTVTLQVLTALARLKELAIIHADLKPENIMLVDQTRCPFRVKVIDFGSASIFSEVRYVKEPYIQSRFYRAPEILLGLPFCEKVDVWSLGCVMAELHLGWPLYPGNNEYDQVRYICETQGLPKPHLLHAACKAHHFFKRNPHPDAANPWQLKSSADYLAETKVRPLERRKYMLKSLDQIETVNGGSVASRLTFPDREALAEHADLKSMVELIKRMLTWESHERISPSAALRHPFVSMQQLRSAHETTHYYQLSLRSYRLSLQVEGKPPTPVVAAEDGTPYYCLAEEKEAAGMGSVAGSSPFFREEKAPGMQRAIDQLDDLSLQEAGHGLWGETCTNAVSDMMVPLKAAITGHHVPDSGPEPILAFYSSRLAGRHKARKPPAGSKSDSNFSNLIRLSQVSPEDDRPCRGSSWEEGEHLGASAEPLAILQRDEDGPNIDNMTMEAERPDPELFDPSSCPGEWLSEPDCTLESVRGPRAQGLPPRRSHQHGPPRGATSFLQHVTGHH
Put plainly: Inhibition of HIPK4 (unknown origin) assessed as remaining activity at 1 uM by Kinome scan method relative to control.

For assay [5], the target named is LIM domain kinase 2 (Homo sapiens) (UniProt P53671). Put plainly: Inhibition of LIMK2 (unknown origin) assessed as remaining activity at 1 uM by Kinome scan method relative to control.
LIM domain kinase 2 (Homo sapiens), sequence (P53671 whole entry, looked up, the tested form may be a part): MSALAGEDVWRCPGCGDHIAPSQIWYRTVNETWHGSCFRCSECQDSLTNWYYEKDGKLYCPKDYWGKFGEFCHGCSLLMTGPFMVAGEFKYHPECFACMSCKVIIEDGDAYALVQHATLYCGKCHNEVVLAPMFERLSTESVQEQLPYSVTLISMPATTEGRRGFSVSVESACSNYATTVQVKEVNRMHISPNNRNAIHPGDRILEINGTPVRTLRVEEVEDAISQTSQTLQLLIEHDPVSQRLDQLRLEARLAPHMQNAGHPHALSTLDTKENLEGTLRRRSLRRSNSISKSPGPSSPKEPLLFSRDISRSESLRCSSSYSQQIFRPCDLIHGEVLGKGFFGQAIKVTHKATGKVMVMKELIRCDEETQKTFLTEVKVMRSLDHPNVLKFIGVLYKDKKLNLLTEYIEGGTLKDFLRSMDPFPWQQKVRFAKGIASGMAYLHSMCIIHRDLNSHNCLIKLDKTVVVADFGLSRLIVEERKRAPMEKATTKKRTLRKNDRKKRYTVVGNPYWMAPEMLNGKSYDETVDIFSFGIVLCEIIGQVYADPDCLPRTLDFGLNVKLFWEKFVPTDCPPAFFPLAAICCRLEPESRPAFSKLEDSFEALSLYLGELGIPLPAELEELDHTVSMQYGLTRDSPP
The target of assay [6] is MAP kinase-interacting serine/threonine-protein kinase 2 (Homo sapiens) (UniProt Q9HBH9). Put plainly: Inhibition of MKNK2 (unknown origin) assessed as remaining activity at 1 uM by Kinome scan method relative to control.
MAP kinase-interacting serine/threonine-protein kinase 2 (Homo sapiens), sequence (Q9HBH9 whole entry, looked up): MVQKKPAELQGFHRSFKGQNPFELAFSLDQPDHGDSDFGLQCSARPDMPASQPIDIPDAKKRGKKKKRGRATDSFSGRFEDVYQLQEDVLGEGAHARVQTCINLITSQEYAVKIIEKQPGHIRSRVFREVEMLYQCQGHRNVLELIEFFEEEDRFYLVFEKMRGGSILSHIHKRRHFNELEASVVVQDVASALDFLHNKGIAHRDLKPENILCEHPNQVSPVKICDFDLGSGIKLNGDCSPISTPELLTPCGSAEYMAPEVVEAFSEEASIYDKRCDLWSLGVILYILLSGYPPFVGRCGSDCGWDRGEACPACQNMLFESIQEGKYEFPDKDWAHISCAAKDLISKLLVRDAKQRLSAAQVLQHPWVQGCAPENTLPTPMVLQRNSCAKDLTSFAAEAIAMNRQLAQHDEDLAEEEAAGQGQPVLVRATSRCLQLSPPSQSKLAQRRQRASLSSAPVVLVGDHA
Assay [7] addresses Mitogen-activated protein kinase 11 (Homo sapiens) (UniProt Q15759). Put plainly: Inhibition of P38beta (unknown origin) assessed as remaining activity at 1 uM by Kinome scan method relative to control.
For assay [8], the target named is STE20/SPS1-related proline-alanine-rich protein kinase (Homo sapiens) (UniProt Q9UEW8). In words: Inhibition of STK39 (unknown origin) assessed as remaining activity at 1 uM by Kinome scan method relative to control.

Tyrosine-protein kinase ABL1 (Homo sapiens), P00519 [F317L], sequence (P00519 whole entry F317L): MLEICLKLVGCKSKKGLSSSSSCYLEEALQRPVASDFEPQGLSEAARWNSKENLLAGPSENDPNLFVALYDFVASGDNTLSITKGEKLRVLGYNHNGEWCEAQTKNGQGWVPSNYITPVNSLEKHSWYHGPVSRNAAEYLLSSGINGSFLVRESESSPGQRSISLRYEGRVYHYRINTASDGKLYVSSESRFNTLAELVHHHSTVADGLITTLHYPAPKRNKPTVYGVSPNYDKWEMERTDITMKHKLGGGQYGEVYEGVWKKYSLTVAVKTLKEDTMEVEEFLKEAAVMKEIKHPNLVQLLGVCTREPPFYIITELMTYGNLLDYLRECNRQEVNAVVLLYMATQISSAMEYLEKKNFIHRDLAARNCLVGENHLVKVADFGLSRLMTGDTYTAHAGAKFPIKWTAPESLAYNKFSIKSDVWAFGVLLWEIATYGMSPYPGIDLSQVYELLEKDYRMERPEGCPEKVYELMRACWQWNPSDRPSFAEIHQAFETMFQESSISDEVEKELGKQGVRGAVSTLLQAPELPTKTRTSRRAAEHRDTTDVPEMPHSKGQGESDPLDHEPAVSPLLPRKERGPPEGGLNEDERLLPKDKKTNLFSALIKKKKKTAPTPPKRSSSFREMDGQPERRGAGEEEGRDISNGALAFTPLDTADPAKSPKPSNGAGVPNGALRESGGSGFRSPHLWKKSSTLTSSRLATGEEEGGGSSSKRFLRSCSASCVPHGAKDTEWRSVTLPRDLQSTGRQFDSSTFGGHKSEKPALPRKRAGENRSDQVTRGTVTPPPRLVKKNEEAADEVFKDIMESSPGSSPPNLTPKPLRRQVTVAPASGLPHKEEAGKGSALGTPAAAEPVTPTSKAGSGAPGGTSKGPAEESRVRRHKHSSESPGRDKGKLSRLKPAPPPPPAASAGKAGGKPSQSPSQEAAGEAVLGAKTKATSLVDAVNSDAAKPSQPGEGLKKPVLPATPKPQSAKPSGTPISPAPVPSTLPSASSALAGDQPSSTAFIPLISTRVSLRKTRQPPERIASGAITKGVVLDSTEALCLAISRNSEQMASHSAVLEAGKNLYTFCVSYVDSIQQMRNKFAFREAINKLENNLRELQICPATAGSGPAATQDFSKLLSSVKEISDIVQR
Mitogen-activated protein kinase 11 (Homo sapiens), sequence (Q15759 whole entry): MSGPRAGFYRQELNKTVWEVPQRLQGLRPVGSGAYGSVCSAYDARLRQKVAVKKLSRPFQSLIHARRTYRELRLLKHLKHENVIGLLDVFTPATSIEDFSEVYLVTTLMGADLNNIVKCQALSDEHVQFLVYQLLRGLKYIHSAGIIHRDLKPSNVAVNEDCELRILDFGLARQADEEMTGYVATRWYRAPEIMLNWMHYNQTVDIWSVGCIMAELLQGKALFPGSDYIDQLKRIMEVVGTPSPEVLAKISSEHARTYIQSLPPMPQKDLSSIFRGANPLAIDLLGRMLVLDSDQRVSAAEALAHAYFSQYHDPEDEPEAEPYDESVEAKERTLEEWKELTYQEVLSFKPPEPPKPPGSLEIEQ
Ephrin type-A receptor 2 (Homo sapiens), sequence (P29317 whole entry): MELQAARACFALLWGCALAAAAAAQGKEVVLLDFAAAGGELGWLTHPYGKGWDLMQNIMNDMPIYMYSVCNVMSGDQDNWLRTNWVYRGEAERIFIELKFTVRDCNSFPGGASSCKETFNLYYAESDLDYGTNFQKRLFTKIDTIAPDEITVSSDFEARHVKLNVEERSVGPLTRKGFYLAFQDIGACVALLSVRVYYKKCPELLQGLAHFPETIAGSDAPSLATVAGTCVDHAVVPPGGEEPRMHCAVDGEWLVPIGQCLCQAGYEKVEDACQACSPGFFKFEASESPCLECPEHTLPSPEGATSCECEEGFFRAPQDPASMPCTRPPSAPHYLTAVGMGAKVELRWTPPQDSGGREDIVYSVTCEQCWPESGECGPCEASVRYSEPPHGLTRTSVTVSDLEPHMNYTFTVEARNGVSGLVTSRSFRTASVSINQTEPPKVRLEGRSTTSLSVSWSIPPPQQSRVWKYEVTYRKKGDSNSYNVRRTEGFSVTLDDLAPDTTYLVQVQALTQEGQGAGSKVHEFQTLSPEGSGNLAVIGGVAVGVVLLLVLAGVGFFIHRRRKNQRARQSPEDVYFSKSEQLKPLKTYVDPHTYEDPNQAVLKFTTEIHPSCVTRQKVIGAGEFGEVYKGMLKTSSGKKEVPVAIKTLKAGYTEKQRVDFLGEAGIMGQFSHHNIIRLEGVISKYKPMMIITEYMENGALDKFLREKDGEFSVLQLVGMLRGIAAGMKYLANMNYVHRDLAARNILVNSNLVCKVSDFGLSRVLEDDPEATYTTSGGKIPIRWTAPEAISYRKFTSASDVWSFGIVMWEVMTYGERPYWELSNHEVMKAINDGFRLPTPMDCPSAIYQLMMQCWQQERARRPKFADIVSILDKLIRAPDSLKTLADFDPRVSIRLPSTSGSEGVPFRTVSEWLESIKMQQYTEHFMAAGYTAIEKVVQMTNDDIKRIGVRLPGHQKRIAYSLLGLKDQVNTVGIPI

As to `Nc1ccccc1Nc1ccc2c(c1)CCc1ccccc1C2=O`, the Activity is 87% in assay [1]; 93% in assay [2]; 97% in assay [3]; 97% in assay [4]; 94% in assay [5]; 88% in assay [6]. Besides, the Activity in assay [7] came out at 0.9%; in assay [8], 77%.

For `O=C1c2ccc(Nc3ccc(F)cc3F)cc2CCc2ccc(OC[C@H](O)CO)cc21` [Skepinone-L], the Activity in assay [1] stood at 100%; in assay [2] it was 92%; in assay [3], 100%; in assay [4] it was 100%; in assay [5] it was 100%; in assay [6], 72%. The Activity in assay [7] is 0.15%; in assay [8] it was 93%.

Source of the values: ChEMBL document CHEMBL5696441 (Nat Chem Biol, 2011).
